Results taken from patent US20050175550A1, “Compositions for oral use” (priority 2000, published 2005).
Converted amounts (≈) assume the structure as drawn.

Tests used:
Test in all cases: MIC by agar plate dilution method on standard strains (Example 3)
Assay type in all cases: cell-based
Settings in all cases: read-out: MIC
[1] = test system: Moraxella (Branhamella) catarrhalis ATCC25240
Experimental: (§1) Drug solutions at a concentration 10 times as high as the maximum applicable concentration were prepared as original solutions of test drugs given in Table 2 (as to solvents used for this purpose, reference should be made also to Table 2). Serial two-fold dilution series of the original solutions were prepared at desired stages, and 1 ml each of the diluted drug solutions was added to 9 ml of media given in Table 3 to prepare drug plates. […] • 1) Bacterial solutions stocked at −80° C. were inoculated on agar media (as to media used, reference should be made to Table 3), and then incubated at 37° C. overnight. When desired, subculturing was conducted once more on the same agar media (by overnight incubation at 37° C.). • 2) Colonies growing on the agar media were sampled by a platinum loop, suspended in liquid media (reference should be made to Table 3) and statically incubated at 37° C. for 18 hours (preculturing). • 3) Preculturing was continued up to McFarland 0.5 (McFarland 0.5=about 10^8 CFU/ml), and then the culture broths were diluted with Muellar Hinton Broth to make 10^6 CFU/ml. 5 μl each of the diluted solutions were inoculated on the above-mentioned drug plates by an inoculator Microplanter. […] Thus, bacterial solutions at about 10^8 CFU/ml can be easily prepared by use of McFarland 0.5. Bacterial solutions at such a turbidity are commercially available, but can be easily prepared.

[2] = test system: Moraxella (Branhamella) catarrhalis ATCC43617
Experimental: as §1

[3] = test system: Pseudomonas aeruginosa ATCC27853
Experimental: as §1

[4] = test system: Serratia marcescens ATCC13880
Experimental: as §1

[5] = test system: Staphylococcus aureus ATCC29247
Experimental: as §1

[6] = test system: Staphylococcus aureus ATCC6538P
Experimental: as §1

[7] = test system: Streptococcus agalactiae ATCC13813
Experimental: as §1

[8] = test system: Streptococcus pneumoniae ATCC49619
Experimental: as §1

[9] = test system: Streptococcus pneumoniae ATCC6301
Experimental: as §1

[10] = test system: Streptococcus pneumoniae ATCC6302
Experimental: as §1

[11] = test system: Streptococcus pneumoniae ATCC6303
Experimental: as §1

[12] = test system: Streptococcus pneumoniae ATCC6306
Experimental: as §1

[13] = test system: Streptococcus pyogenes ATCC12344
Experimental: as §1

[14] = test system: Streptococcus pyogenes ATCC12353
Experimental: as §1

[15] = test system: Streptococcus pyogenes ATCC12385
Experimental: as §1

MIC [1]: 0.2 µg/mL (≈ 0.267 µM)
MIC [2]: 0.2 µg/mL (≈ 0.267 µM)
MIC [3]: > 100 µg/mL
MIC [4]: > 100 µg/mL
MIC [5]: 50 µg/mL (≈ 66.8 µM)
MIC [6]: 0.2 µg/mL (≈ 0.267 µM)
MIC [7]: 0.05 µg/mL (≈ 0.0668 µM)
MIC [8]: 0.05 µg/mL (≈ 0.0668 µM)
MIC [9]: 0.05 µg/mL (≈ 0.0668 µM)
MIC [10]: 0.1 µg/mL (≈ 0.134 µM)
MIC [11]: 0.05 µg/mL (≈ 0.0668 µM)
MIC [12]: 0.1 µg/mL (≈ 0.134 µM)
MIC [13]: 0.05 µg/mL (≈ 0.0668 µM)
MIC [14]: 0.1 µg/mL (≈ 0.134 µM)
MIC [15]: 0.1 µg/mL (≈ 0.134 µM)
SMILES: CC[C@H]1OC(=O)[C@H](C)[C@@H](O[C@H]2C[C@@](C)(OC)[C@@H](O)[C@H](C)O2)[C@H](C)[C@@H](O[C@@H]2O[C@H](C)C[C@H](N(C)C)[C@H]2O)[C@](C)(OC)C[C@@H](C)C(=O)[C@H](C)[C@@H](O)[C@]1(C)O [CAM, Clarithromycin]
